This test relates to LXRα and/or LXRβ. The test can be described thus: Co-transfection assay (LXRE luciferase reporter, CV-1 cells). It counts as cell-based, human. As to conditions: tested as described in Example 33; IC50 or EC50 for LXRα and/or LXRβ, isoform not specified; read-out: activity (IC50 or EC50 for LXR). Summed up:
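Luciferase signal measures LXR-RXR transcriptional activation in transiently transfected CV-1 cells carrying human LXRα or LXRβ, RXRα and a single-copy LXRE reporter. Cells were exposed to compound for 20 h at 37 °C with at most 1% DMSO, using 10 μM final for screening. Potency was derived from 4-parameter fits of 8-point, half-log dose curves averaged over ≥3 runs, and efficacy was expressed as % of a reference agonist.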
A general note: A reporter such as luciferase makes a cellular process visible.

`CCS(=O)(=O)c1cccc(-c2ccc(-n3cc(C(C)(C)O)nc3-c3cccc(F)c3Cl)c(C)c2)c1` [Example 186, 2-(2-(2-chloro-3-fluorophenyl)-1-(3′-(ethylsulfonyl)-3-methylbiphenyl-4-yl)-1H-imidazol-4-yl)propan-2-ol]: the IC50 or EC50 (potency, activation or inhibition) was < 1000 nM.

For `Cc1cc(-c2cccc(S(C)(=O)=O)c2)ccc1-n1cc(C(C)(C)O)nc1-c1c(F)cccc1Cl` [Example 187, 2-(2-(2-chloro-6-fluorophenyl)-1-(3-methyl-3′-(methylsulfonyl)biphenyl-4-yl)-1H-imidazol-4-yl)propan-2-ol], the IC50 or EC50 (potency, activation or inhibition) is < 1000 nM.

On to `CCS(=O)(=O)c1cccc(-c2ccc(-n3cc(C(C)(C)O)nc3-c3c(F)cccc3Cl)c(C)c2)c1` [Example 188, 2-(2-(2-chloro-6-fluorophenyl)-1-(3′-(ethylsulfonyl)-3-methylbiphenyl-4-yl)-1H-imidazol-4-yl)propan-2-ol], for which the IC50 or EC50 (potency, activation or inhibition) is < 1000 nM.

For the compound `Cc1cc(-c2cccc(S(C)(=O)=O)c2)ccc1-n1cc(C(C)(C)O)nc1-c1cccc(Cl)c1C` [Example 189, 2-(2-(3-chloro-2-methylphenyl)-1-(3-methyl-3′-(methylsulfonyl)biphenyl-4-yl)-1H-imidazol-4-yl)propan-2-ol], the IC50 or EC50 (potency, activation or inhibition) was < 1000 nM.

On to `CCS(=O)(=O)c1cccc(-c2ccc(-n3cc(C(C)(C)O)nc3-c3cccc(Cl)c3C)c(C)c2)c1` [Example 190, 2-(2-(3-chloro-2-methylphenyl)-1-(3′-(ethylsulfonyl)-3-methylbiphenyl-4-yl)-1H-imidazol-4-yl)propan-2-ol], for which the IC50 or EC50 (potency, activation or inhibition) was < 1000 nM.

Turning to `Cc1cc(-c2cccc(S(C)(=O)=O)c2)ccc1-n1cc(C(C)(C)O)nc1-c1c(C)cccc1Cl` [Example 191, 2-(2-(2-chloro-6-methylphenyl)-1-(3-methyl-3′-(methylsulfonyl)biphenyl-4-yl)-1H-imidazol-4-yl)propan-2-ol], the IC50 or EC50 (potency, activation or inhibition) was < 1000 nM.

On to `CCS(=O)(=O)c1cccc(-c2ccc(-n3cc(C(C)(C)O)nc3-c3c(C)cccc3Cl)c(C)c2)c1` [Example 192, 2-(2-(2-chloro-6-methylphenyl)-1-(3′-(ethylsulfonyl)-3-methylbiphenyl-4-yl)-1H-imidazol-4-yl)propan-2-ol], for which the IC50 or EC50 (potency, activation or inhibition) is < 1000 nM.

On to `Cc1cc(-c2cccc(S(C)(=O)=O)c2)ccc1-n1cc(C(C)(C)O)nc1-c1c(F)cccc1F` [Example 193, 2-(2-(2,6-difluorophenyl)-1-(3-methyl-3′-(methylsulfonyl)biphenyl-4-yl)-1H-imidazol-4-yl)propan-2-ol], for which the IC50 or EC50 (potency, activation or inhibition) was < 1000 nM.

Turning to `CCS(=O)(=O)c1cccc(-c2ccc(-n3cc(C(C)(C)O)nc3-c3c(F)cccc3F)c(C)c2)c1` [Example 194, 2-(2-(2,6-difluorophenyl)-1-(3′-(ethylsulfonyl)-3-methylbiphenyl-4-yl)-1H-imidazol-4-yl)propan-2-ol], the IC50 or EC50 (potency, activation or inhibition) was < 1000 nM.

Turning to `Cc1cc(-c2cccc(S(C)(=O)=O)c2)ccc1-n1cc(C(C)(C)O)nc1-c1ccccc1C(C)C` [Example 195, 2-(2-(2-isopropylphenyl)-1-(3-methyl-3′-(methylsulfonyl)biphenyl-4-yl)-1H-imidazol-4-yl)propan-2-ol], the IC50 or EC50 (potency, activation or inhibition) was < 1000 nM.

On to `CCS(=O)(=O)c1cccc(-c2ccc(-n3cc(C(C)(C)O)nc3-c3ccccc3C(C)C)c(C)c2)c1` [Example 196, 2-(1-(3′-(ethylsulfonyl)-3-methyl-biphenyl-4-yl)-2-(2-isopropyl-phenyl)-1H-imidazol-4-yl)propan-2-ol], for which the IC50 or EC50 (potency, activation or inhibition) was < 1000 nM.

Take `Cc1cc(-c2cccc(S(C)(=O)=O)c2)ccc1-c1nc(C(C)(C)O)cn1-c1c(Cl)cccc1Cl` [Example 197, 2-(1-(2,6-dichlorophenyl)-2-(3-methyl-3′-(methylsulfonyl)biphenyl-4-yl)-1H-imidazol-4-yl)propan-2-ol]: the IC50 or EC50 (potency, activation or inhibition) was < 1000 nM.

As to `CC(C)(O)c1cn(-c2ccc(-c3cccc(S(C)(=O)=O)c3)cc2)c(-c2ccccc2C(F)(F)F)n1` [Example 198, 2-{1-[3′-(methylsulfonyl)biphenyl-4-yl]-2-[2-(trifluoromethyl)phenyl]-1H-imidazol-4-yl}propan-2-ol], the IC50 or EC50 (potency, activation or inhibition) was < 1000 nM.

`CC(C)(O)c1cn(-c2ccc(-c3ccc(S(C)(=O)=O)cc3)cc2)c(-c2ccccc2C(F)(F)F)n1` [Example 199, 2-{1-[4′-(methylsulfonyl)biphenyl-4-yl]-2-[2-(trifluoromethyl)phenyl]-1H-imidazol-4-yl}propan-2-ol]: the IC50 or EC50 (potency, activation or inhibition) lay within 1000 to 10000 nM.

`CCS(=O)(=O)c1cccc(-c2ccc(-n3cc(C(C)(C)O)nc3-c3ccccc3C(F)(F)F)cc2)c1` [Example 200, 2-{1-[3′-(ethylsulfonyl)biphenyl-4-yl]-2-[2-(trifluoromethyl)phenyl]-1H-imidazol-4-yl}propan-2-ol]: the IC50 or EC50 (potency, activation or inhibition) was < 1000 nM.

With `CC(C)(O)c1cn(-c2cccc(-c3cccc(S(C)(=O)=O)c3)c2)c(-c2ccccc2C(F)(F)F)n1` [Example 201, 2-{1-[3′-(methylsulfonyl)biphenyl-3-yl]-2-[2-(trifluoromethyl)phenyl]-1H-imidazol-4-yl}propan-2-ol], the IC50 or EC50 (potency, activation or inhibition) is < 1000 nM.

As for `CC(C)(O)c1cn(-c2ccc(-c3cc(C(F)(F)F)ccc3F)cc2)c(-c2ccccc2C(F)(F)F)n1` [Example 220, 2-{1-[2′-fluoro-5′-(trifluoro-methyl)biphenyl-4-yl]-2-[2-(trifluoro-methyl)phenyl]-1H-imidazol-4-yl}propan-2-ol], the IC50 or EC50 (potency, activation or inhibition) is < 1000 nM.

As to `COc1ncccc1-c1ccc(-n2cc(C(C)(C)O)nc2-c2ccccc2C(F)(F)F)cc1` [Example 274, 2-(1-{4-[2-(methyloxy)pyridin-3-yl]phenyl}-2-[2-(trifluoro-methyl)phenyl]-1H-imidazol-4-yl)propan-2-ol], the IC50 or EC50 (potency, activation or inhibition) lay in the range of 1000 to 10000 nM.

With `CNS(=O)(=O)c1cccc(-c2ccc(-n3cc(C(C)(C)O)nc3-c3ccccc3C(F)(F)F)cc2)c1` [Example 344, 4′-{4-(1-hydroxy-1-methylethyl)-2-[2-(trifluoromethyl)phenyl]-1H-imidazol-1-yl}-N-methylbiphenyl-3-sulfonamide], the IC50 or EC50 (potency, activation or inhibition) is < 1000 nM.

In the case of `CS(=O)(=O)c1cccc(-c2ccc(-c3[nH]c(C(F)(F)F)nc3-c3ccccc3Cl)s2)c1` [Example 357, 4-(2-chlorophenyl)-5-{5-[3-(methylsulfonyl)phenyl]-2-thienyl}-2-(trifluoromethyl)-1H-imidazole], the IC50 or EC50 (potency, activation or inhibition) is < 1000 nM.

With `CS(=O)(=O)c1cccc(-c2ccc(-n3cc(C(F)(F)F)nc3-c3ccccc3Cl)cc2)c1` [Example 358, 2-(2-chlorophenyl)-1-[3′-(methyl-sulfonyl)biphenyl-4-yl]-4-(trifluoro-methyl)-1H-imidazole], the IC50 or EC50 (potency, activation or inhibition) was < 1000 nM.

`CS(=O)(=O)c1cccc(-c2ccc(-c3[nH]c(C(F)(F)F)nc3-c3ccccc3Cl)cc2)c1` [Example 359, 4-(2-chlorophenyl)-5-[3′-(methyl-sulfonyl)biphenyl-4-yl]-2-(trifluoro-methyl)-1H-imidazole]: the IC50 or EC50 (potency, activation or inhibition) was < 1000 nM.

For the origin of these results see patent publication US9000022B2 (Exelixis Patent Company LLC, priority 2005, dated 2015).
